Test results from ChEMBL document CHEMBL5727031, “Metabotropic glutamate receptor negative allosteric modulators (NAMS) and uses thereof” (2018).

Experiments:
[1] = (§1) In Vitro GIRK Thallium Flux Assay (2.5 minutes): Human Embryonic Kidney (HEK-293) cell lines co-expressing rat mGlu receptors 2, 3, 4, 6, 7 or 8 and G protein-coupled inwardly-rectifying potassium (GIRK) channels_ENREF_54 were grown in Growth Media containing 45% DMEM, 45% F-12, 10% FBS, 20 mM HEPES, 2 mM L-glutamine, antibiotic/antimycotic, non-essential amino acids, 700 μg/ml G418, and 0.6 μg/ml puromycin at 37° C. in the presence of 5% CO2. All cell culture reagents were purchased from Invitrogen Corp. (Carlsbad, Calif.) unless otherwise noted. Compound activity at the group II (mGlu2 and mGlu3) mGlus was assessed using thallium flux through GIRK channels. Briefly, cells were plated into 384-well, black-walled, clear-bottomed poly-D-lysine-coated plates at a density of 15,000 cells/20 μL/well in DMEM containing 10% dialyzed FBS, 20 mM HEPES, and 100 units/mL penicillin/streptomycin (assay media). Plated cells were incubated overnight at 37° C. in the presence of 5% CO2. The following day, the medium was exchanged from the cells to assay buffer [Hanks' balanced salt solution (Invitrogen) containing 20 mM HEPES, pH 7.3] using an ELX405 microplate washer (BioTek), leaving 20 μL/well, followed by the addition of 20 μL/well FluoZin2-AM (330 nM final concentration) indicator dye (Invitrogen; prepared as a stock in DMSO and mixed in a 1:1 ratio with Pluronic acid F-127) in assay buffer. Cells were incubated for 1 h at room temperature, and the dye exchanged to assay buffer using an ELX405, leaving 20 μL/well. Test compounds were diluted to 2 times their final desired concentration in assay buffer (0.3% DMSO final concentration). Agonists were diluted in thallium buffer [125 mM sodium bicarbonate (added fresh the morning of the experiment), 1 mM magnesium sulfate, 1.8 mM calcium sulfate, 5 mM glucose, 12 mM thallium sulfate, and 10 mM HEPES, pH 7.3] at 5 times the final concentration to be assayed. Cell plates and compound plates were loaded onto a kinetic imaging plate reader (FDSS 6000 or 7000; Hamamatsu Corporation, Bridgewater, N.J.). Appropriate baseline readings were taken (10 images at 1 Hz; excitation, 470±20 nm; emission, 540±30 nm) and test compounds were added in a 20 μL volume and incubated for either 2.5 min or 60 min as indicated before the addition of 10 μL of thallium buffer with or without agonist. After the addition of agonist, data were collected for approximately an additional 2.5 min. Data were analyzed using Excel (Microsoft Corp, Redmond, Wash.). The slope of the fluorescence increase beginning 5 s after thallium/agonist addition and ending 15 s after thallium/agonist addition was calculated, corrected to vehicle and maximal agonist control slope values, and plotted in using either XLfit (ID Business Solutions Ltd) or Prism software (GraphPad Software, San Diego, Calif.) to generate concentration-response curves. Potencies were calculated from fits using a four-point parameter logistic equation. For concentration-response curve experiments, compounds were serially diluted 1:3 into 10 point concentration response curves and were transferred to daughter plates using an Echo acoustic plate reformatter (Labcyte, Sunnyvale, Calif.). Test compounds were applied and followed by EC80 concentrations of glutamate.
[2] = as §1, with “Assay (60” for “Assay (2.5”, “additional 60” for “additional 2.5”
[3] = as §1; remark: listed apart in the source
[4] = as §1, with “Assay (60” for “Assay (2.5”, “additional 60” for “additional 2.5”; remark: listed apart in the source

Row | SMILES | EC50 [1] [µM] | EC50 [2] [µM] | EC50 [3] [µM] | EC50 [4] [µM] | EC50 ([1]; HEK293, 2.5 min) [µM] | EC50 ([2]; HEK293, 1 h) [µM] | EC50 ([3]; HEK293, 2.5 min) [µM] | EC50 ([4]; HEK293, 1 h) [µM]
1 | O=C(O)c1cc(F)cc(-c2cccc(-c3nc(-c4ccoc4)cc(C(F)(F)F)n3)c2)c1 | 0.35 | 0.31 | 2.21 | 1.56 | – | – | – | –
2 | Fc1ccccc1-c1cccc(-c2nsc(-c3ccccc3)n2)c1 | – | – | – | – | 0.89 | 0.11 | > 10 | > 10
3 | COc1ccc(-n2nc(-c3cccc(-c4ccccc4)c3)nc2-c2ccccc2)cc1 | – | – | – | – | > 10 | 6.58 | 2.96 | 0.46
4 | Fc1ccc(-c2cccc(-c3nsc(-c4ccoc4)n3)c2)cc1 | – | – | – | – | 3.63 | 3.71 | > 10 | > 10
5 | c1ccc(-c2cccc(-c3nc(-c4cccs4)n(-c4ccccc4)n3)c2)cc1 | – | – | – | – | > 10 | 3.67 | 4.29 | 1.68
6 | c1ccc(-c2cccc(-c3noc(-c4ccccc4)n3)c2)cc1 | – | – | – | – | 1.33 | 0.79 | > 10 | > 10
7 | C(=C\c1nc(-c2cccc(-c3ccccc3)c2)cs1)/c1ccccc1 | – | – | – | – | 3.47 | > 10 | > 10 | > 10
8 | FC(F)(F)c1ccc(-c2nc(-c3cccc(-c4ccccc4)c3)nn2-c2ccccc2)cn1 | – | – | – | – | > 10 | > 10 | 5.56 | 0.85
9 | c1ccc(-c2cccc(-c3n[nH]c(-c4ccccc4)n3)c2)cc1 | – | – | – | – | > 10 | > 30 | > 30 | > 30
10 | c1ccc(-c2cccc(-c3nsc(-c4ccccc4)n3)c2)cc1 | – | – | – | – | 0.32 | 0.05 | 2.28 | 0.45
11 | Clc1ccc(-c2nc(-c3cccc(-c4ccccc4)c3)cs2)cn1 | – | – | – | – | 3.83 | 0.27 | > 10 | 0.83
12 | Fc1ccc(-c2cccc(-c3csc(-c4ccccc4)c3)c2)cc1 | – | – | – | – | > 10 | > 10 | > 10 | > 10
13 | Fc1ccc(-c2cccc(-c3csc(-c4ccccc4)n3)c2)cc1 | – | – | – | – | 0.33 | 0.48 | 1.21 | > 10
14 | COc1ccc(-c2nc(-c3cccc(-c4ccccc4)c3)cs2)cc1OC | – | – | – | – | 2.58 | 1.1 | 4.02 | > 10
15 | COc1ccc(-c2cccc(-c3csc(-c4ccccc4)n3)c2)cc1 | – | – | – | – | 1.73 | 2.14 | 1.77 | 2.86
16 | Fc1ccc(-c2cccc(-c3csc(-c4cc5ccccc5o4)n3)c2)cc1 | – | – | – | – | 2.57 | 1.93 | 3.32 | > 10
17 | Cc1cc(NC(=O)OC(C)(C)C)c(NC(=O)CC(=O)c2cccc(OCc3ccccc3)c2)cc1C(F)(F)F | – | – | – | – | > 10 | 2.36 | 2.93 | 0.74
18 | Fc1ccc(-c2ccc(-c3csc(-c4ccccc4)n3)s2)cc1 | – | – | – | – | > 10 | > 10 | > 10 | > 10
19 | Clc1cccc(-c2cccc(-c3csc(-c4ccccc4)n3)c2)c1 | – | – | – | – | > 10 | > 10 | > 10 | > 10
20 | c1ccc(-c2cccc(-c3cc(-c4ccccc4)on3)c2)cc1 | – | – | – | – | > 10 | > 30 | > 10 | > 10
21 | Fc1ccc(-c2cccc(-c3csc(-c4cc5ccccc5s4)n3)c2)cc1 | – | – | – | – | > 10 | 1.92 | > 10 | > 10
22 | COc1ccccc1-c1cccc(-c2csc(-c3ccccc3)n2)c1 | – | – | – | – | 1.81 | 1.35 | > 10 | > 10
23 | c1ccc(-c2nc(-c3cccc(-c4ccco4)c3)nn2-c2ccccc2)cc1 | – | – | – | – | > 10 | > 30 | 0.21 | > 30
24 | CC(C)n1nc(-c2cccc(-c3ccccc3)c2)nc1-c1ccccc1 | – | – | – | – | > 10 | > 30 | > 10 | > 10
25 | Fc1ccc(-c2csc(-c3ccccc3)n2)cc1 | – | – | – | – | > 10 | > 30 | > 30 | > 30
